# Patent publication US20180256595A1, “AGENT FOR ENHANCING OCULAR HYPOTENSIVE EFFECT” (KOWA COMPANY, LTD., priority 2015, published 2018)
# Test: Multi-center open-label study: continuous ocular instillation of 0.4% ripasudil ophthalmic solution twice daily for 52 weeks, change in intra-ocular pressure
# Assay type: in vivo, patients
# Protocol: A multi-center open-label study was performed using a cohort for a monotherapy of ripasudil ophthalmic solution (173 cases) and a cohort for an additive therapy of a ripasudil ophthalmic solution in combination with another agent (181 cases) (additive therapy to a PG related drug: 62 cases, additive therapy to a β blocker: 60 cases, additive therapy to a combination drug of said PG-related drug and said β blocker: 59 cases). Patients with primary open angle glaucoma, ocular hypertension, and exfoliation glaucoma (one type of secondary glaucoma to cause aqueous humor outflow resistance due to exfoliation substances in aqueous humor or the like) having a pre-treatment intra-ocular pressure of 15 mmHg or higher or a post-treatment intra-ocular pressure of 15 mmHg or higher at the time after treatment of a PG-related drug, a β-blocker, or a combination drug of the PG-related drug and β-blocker were enrolled. A 0.4% ripasudil ophthalmic solution was dropped into an eye twice daily for 52 weeks. In order to evaluate intra-ocular pressure-lowering effect over time caused by long-term ocular instillation, the amount of change in intra-ocular pressure (least mean square value) in a second half of ocular instillation (32 weeks to 52 weeks) with respect to a first half of ocular instillation (4 weeks to 28 weeks) was examined. Statistical analysis was performed using SAS (SAS Inc., Cary, N.C.) by a least squares method based on a mixed effect model.
# [1] = 2 hours after ocular instillation, baseline intra-ocular pressure 15≤ to <18 mmHg
# [2] = 2 hours after ocular instillation, baseline intra-ocular pressure 18≤ to <−21 mmHg
# [3] = 2 hours after ocular instillation, baseline intra-ocular pressure 21≤ mmHg
# [4] = 2 hours after ocular instillation, whole cohort, least mean square value ± SE
# [5] = before ocular instillation (immediately before ocular instillation in the morning), whole cohort, least mean square value ± SE
# [6] = before ocular instillation, baseline intra-ocular pressure 15≤ to <18 mmHg
# [7] = before ocular instillation, baseline intra-ocular pressure 18≤ to <−21 mmHg
# [8] = before ocular instillation, baseline intra-ocular pressure 21≤ mmHg
smiles,measurement,setting,value
"C[C@H]1CNCCCN1S(=O)(=O)c1cccc2cncc(F)c12 [Ripasudil only, (S)-(−)-1-(4-fluoro-5-isoquinolinesulfonyl)-2-methyl-1,4-homopiperazine]",Change from the baseline intra-ocular pressure First half (Week 4-28),[1],−2.86 ± 0.24 mmHg
same,Change from the baseline intra-ocular pressure Second half (Week 32-52),[1],−3.35 ± 0.25 mmHg
same,Difference (second half with respect to first half),[1],−0.49 ± 0.12 mmHg
same,Change from the baseline intra-ocular pressure First half (Week 4-28),[2],−3.24 ± 0.22 mmHg
same,Change from the baseline intra-ocular pressure Second half (Week 32-52),[2],−3.71 ± 0.22 mmHg
same,Difference (second half with respect to first half),[2],−0.47 ± 0.11 mmHg
same,Change from the baseline intra-ocular pressure First half (Week 4-28),[3],−3.55 ± 0.40 mmHg
same,Change from the baseline intra-ocular pressure Second half (Week 32-52),[3],−4.39 ± 0.41 mmHg
same,Difference (second half with respect to first half),[3],−0.84 ± 0.17 mmHg
same,Difference (second half with respect to first half),"2 hours after ocular instillation, whole cohort",−0.58 ± 0.08 mmHg
same,Change from the baseline intra-ocular pressure First half (Week 4-28),[4],−3.23 ± 0.17 mmHg
same,Change from the baseline intra-ocular pressure Second half (Week 32-52),[4],−3.81 ± 0.17 mmHg
same,Change from the baseline intra-ocular pressure Second half (Week 32-52),"2 hours after ocular instillation, whole cohort, least mean square value ± SE, listed as ripasudil",−3.81 mmHg
same,Difference (second half with respect to first half),"2 hours after ocular instillation, whole cohort, listed as ripasudil",−0.58 mmHg
same,Difference (second half with respect to first half),"before ocular instillation (immediately before ocular instillation in the morning), whole cohort",−0.49 ± 0.07 mmHg
same,Change from the baseline intra-ocular pressure First half (Week 4-28),[5],−2.12 ± 0.15 mmHg
same,Change from the baseline intra-ocular pressure Second half (Week 32-52),[5],−2.61 ± 0.15 mmHg
same,Change from the baseline intra-ocular pressure Second half (Week 32-52),"before ocular instillation (immediately before ocular instillation in the morning), whole cohort, least mean square value ± SE, listed as ripasudil",−2.61 mmHg
same,Difference (second half with respect to first half),"before ocular instillation (immediately before ocular instillation in the morning), whole cohort, listed as ripasudil",−0.49 mmHg
same,Change from the baseline intra-ocular pressure First half (Week 4-28),[6],−1.30 ± 0.25 mmHg
same,Change from the baseline intra-ocular pressure Second half (Week 32-52),[6],−1.70 ± 0.26 mmHg
same,Difference (second half with respect to first half),[6],−0.40 ± 0.12 mmHg
same,Change from the baseline intra-ocular pressure First half (Week 4-28),[7],−2.38 ± 0.16 mmHg
same,Change from the baseline intra-ocular pressure Second half (Week 32-52),[7],−2.66 ± 0.17 mmHg
same,Difference (second half with respect to first half),[7],−0.28 ± 0.11 mmHg
same,Change from the baseline intra-ocular pressure First half (Week 4-28),[8],−2.52 ± 0.34 mmHg
same,Change from the baseline intra-ocular pressure Second half (Week 32-52),[8],−3.42 ± 0.35 mmHg
same,Difference (second half with respect to first half),[8],−0.91 ± 0.16 mmHg
same,Difference (second half with respect to first half),"before ocular instillation, baseline intra-ocular pressure 21≤ mmHg, listed as ripasudil",−0.91 mmHg
same,intra-ocular pressure-lowering effect on long-term continuous administration (in words),long-term continuous ocular instillation,exhibited a further intra-ocular pressure-lowering effect by continuous ocular instillation
